{"source": "paper PMC10944509", "about": "“Structural and mechanistic insights into activation of the human RNA ligase RTCB by Archease” (Nature Communications, 2024)", "key": {"[1]": {"biological_target": "T1, human RTCB-Archease complex (Homo sapiens, UniProt Q8IWT0+Q9Y3I0)", "T1 construct": "full-length RTCB from Sf21 insect cells (His6 tag, TEV-cleaved optionally) with Archease isoform 1 from E. coli (N-terminal His6, thrombin site, tag removal optional); 1:1 complex", "T1 sequence (Q9Y3I0 1-505)": "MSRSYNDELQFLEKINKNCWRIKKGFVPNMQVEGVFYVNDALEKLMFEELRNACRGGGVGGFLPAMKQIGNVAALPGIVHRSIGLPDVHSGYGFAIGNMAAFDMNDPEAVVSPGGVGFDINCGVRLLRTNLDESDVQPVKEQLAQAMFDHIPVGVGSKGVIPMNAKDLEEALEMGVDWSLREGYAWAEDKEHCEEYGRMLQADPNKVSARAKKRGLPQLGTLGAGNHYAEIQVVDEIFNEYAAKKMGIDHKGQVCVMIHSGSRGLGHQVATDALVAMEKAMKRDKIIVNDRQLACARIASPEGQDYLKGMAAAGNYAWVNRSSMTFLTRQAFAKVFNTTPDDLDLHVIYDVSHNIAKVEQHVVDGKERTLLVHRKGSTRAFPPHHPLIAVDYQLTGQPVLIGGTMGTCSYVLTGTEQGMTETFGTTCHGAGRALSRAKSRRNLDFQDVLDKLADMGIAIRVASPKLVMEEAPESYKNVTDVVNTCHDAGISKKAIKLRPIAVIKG", "T1 sequence (Q8IWT0 1-167)": "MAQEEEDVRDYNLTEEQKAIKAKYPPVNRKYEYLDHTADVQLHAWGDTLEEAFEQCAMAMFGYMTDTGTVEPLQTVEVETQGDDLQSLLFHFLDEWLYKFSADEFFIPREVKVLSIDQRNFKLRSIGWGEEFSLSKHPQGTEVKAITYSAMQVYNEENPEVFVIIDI", "experiment": "X-ray crystal structure, […] Å", "assay_type": "binding", "conditions": "Mn2+ (sites A, B, C); RTCB active site, gamma-phosphate coordinated by Archease-bound Mn2+; non-hydrolyzable GTP analog; 291 K"}, "[2]": {"biological_target": "T1, human RTCB-Archease complex", "experiment": "X-ray crystal structure, […] Å", "assay_type": "binding", "conditions": "covalent; phosphoramidate with RTCB H428, formed from GTP in co-crystallization; Mn2+ (sites A, C); 291 K"}, "[3]": {"biological_target": "T1, human RTCB-Archease complex", "experiment": "radioactive guanylylation assay, gel autoradiography", "assay_type": "biochemical", "conditions": "covalent; labelled compound (alpha-32P-GTP 80 nM); RTCB 1 µM, Archease 1 µM, 0.5 mM MnCl2, pH 7.5, 30 °C"}, "human RTCB (human)": {"biological_target": "human RTCB (human) (UniProt Q9Y3I0)"}}}
{"compound": "Nc1nc2c(ncn2[C@@H]2O[C@H](COP(=O)(O)CP(=O)(O)OP(=O)(O)O)[C@@H](O)[C@H]2O)c(=O)[nH]1", "note": "[GMPCPP, guanosine-5’-[(α,β)-methyleno]triphosphate]", "values": [{"measurement": "X-ray crystal structure, 2.3 Å", "setting": "[1]", "value": "RTCB-Archease complex with a well-resolved GMPCPP molecule in the active site of RTCB"}]}
{"compound": "Nc1nc2c(ncn2[C@@H]2O[C@H](COP(=O)(O)O)[C@@H](O)[C@H]2O)c(=O)[nH]1", "note": "[GMP]", "values": [{"measurement": "X-ray crystal structure, 2.2 Å", "setting": "[2]", "value": "GTP reacted with the active site histidine H428 to form the guanylylated RTCB-H428-GMP intermediate"}]}
{"compound": "Nc1nc2c(ncn2[C@@H]2O[C@H](COP(=O)(O)OP(=O)(O)OP(=O)(O)O)[C@@H](O)[C@H]2O)c(=O)[nH]1", "note": "[GTP]", "values": [{"measurement": "radioactive guanylylation assay, gel autoradiography", "setting": "[3]", "value": "We detected the formation of guanylylated RTCB only in the presence of Archease"}]}
{"compound": "human Archease (isoform 1) (from UniProt Q8IWT0 1-167) (natural protein)", "values": [{"measurement": "apparent rate constant of XBP1 intron circularization by RTCB (250 nM) with 1 uM Archease, GTP and Mn2+; no ligated product without Archease", "setting": "human RTCB (human)", "value": 0.015, "unit": "min⁻¹"}]}
